For six molecules, melting point results are on record in patent publication US7696374B2, “Arylalklcarbamate derivatives, preparation method thereof and use of same in therapeutics” (Sanofi-Aventis, priority 2003, dated 2010).

SMILES strings stand for the structures.

In the case of `O=C(NCc1ccc(Oc2ccccc2)cc1)OCC(F)(F)F` [Compound No. 10, 2,2,2-Trifluoroethyl 4-phenyloxybenzylcarbamate], the melting point lay within 145 to 148 °C.

As to `O=C(NCc1ccc(-c2ccccc2)cc1)Oc1ccc(F)cc1`, the melting point was 155 to 157 °C. For `O=C(NCc1ccc(-c2ccccc2)cc1)OCC(F)(F)F` [Compound No. 1, 2,2,2-Trifluoroethyl 1,1′-biphenyl-4-ylmethylcarbamate] the value was 123 to 125 °C. Molecule `COc1ccc(OC(=O)NCc2ccc(Oc3ccccc3)cc2)cc1` yielded a melting point of 89 to 91 °C. To `O=C(NCCc1ccc(-c2ccccc2)cc1)OCC(F)(F)F` [Compound No. 19, 2,2,2-Trifluoroethyl 2-(1,1′-biphenyl-4-yl)ethylcarbamate] belongs 79 to 81 °C; to `Cc1ccc(OC(=O)NCCc2ccc(-c3ccccc3)cc2)cc1`, 172 to 174 °C.
